# The supplement of paper PMC11061612
# Assays:
# Test in all cases: Bliss excess, mean over the matrix (fraction); higher = more synergy
# [1] = test system: ME-1 (Acute Myeloid Leukemia)
# Method in brief: (§1)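 Cell lines in DMEM/F12 or RPMI with 10% FBS were plated in 1536-well plates, held 24 hours at 37°C, 5% CO2, then given two-drug dose matrices for 72 hours (DMSO typically 0.2%). Viability was read by CellTiter-Glo 2.0 luminescence and scaled as inhibition from 0 (vehicle wells) to 1 (blank wells). Combination Emax is the second-highest inhibition in the matrix; Bliss excess is observed combination effect minus expected EA + EB − EA·EB, EA and EB being single-agent effects.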
# [2] = test system: KURAMOCHI (Ovarian Carcinoma)
# Method in brief: as §1
# [3] = test system: HT-1376 (Bladder Carcinoma)
# Method in brief: as §1
# [4] = test system: Hs-578-T (Breast Carcinoma)
# Method in brief: as §1
# [5] = test system: CaR-1 (Colorectal Carcinoma)
# Method in brief: as §1
# [6] = test system: LB831-BLC (Bladder Carcinoma)
# Method in brief: as §1
# [7] = test system: T98G (Glioblastoma)
# Method in brief: as §1
# [8] = test system: HCC-78 (Lung Adenocarcinoma)
# Method in brief: as §1
# [9] = test system: TE-9 (Esophageal Squamous Cell Carcinoma)
# Method in brief: as §1
# [10] = test system: Ramos-2G6-4C10 (Burkitt's Lymphoma)
# Method in brief: as §1
# [11] = test system: CAL-148 (Breast Carcinoma)
# Method in brief: as §1
# [12] = test system: NB10 (Neuroblastoma)
# Method in brief: as §1
# [13] = test system: Calu-3 (Lung Adenocarcinoma)
# Method in brief: as §1
# [14] = test system: CCRF-CEM (T-Lymphoblastic Leukemia)
# Method in brief: as §1
# [15] = test system: UM-UC-3 (Bladder Carcinoma)
# Method in brief: as §1
# [16] = test system: HO-1-N-1 (Oral Cavity Carcinoma)
# Method in brief: as §1
# [17] = test system: DoTc2-4510 (Cervical Carcinoma)
# Method in brief: as §1
# [18] = test system: TE-15 (Esophageal Squamous Cell Carcinoma)
# Method in brief: as §1
# [19] = test system: KELLY (Neuroblastoma)
# Method in brief: as §1
# [20] = test system: LS-180 (Colorectal Carcinoma)
# Method in brief: as §1
SMILES,Bliss excess [1],Bliss excess [2],Bliss excess [3],Bliss excess [4],Bliss excess [5],Bliss excess [6],Bliss excess [7],Bliss excess [8],Bliss excess [9],Bliss excess [10],Bliss excess [11],Bliss excess [12],Bliss excess [13],Bliss excess [14],Bliss excess [15],Bliss excess [16],Bliss excess [17],Bliss excess [18],Bliss excess [19],Bliss excess [20]
"C=CCn1c(=O)c2cnc(Nc3ccc(N4CCN(C)CC4)cc3)nc2n1-c1cccc(C(C)(C)O)n1 [AZD1775] + CCc1c2c(nc3ccc(O)cc13)-c1cc3c(c(=O)n1C2)COC(=O)[C@]3(O)CC [SN-38] (first compound max 1 µM, partner max 0.3 µM)",-0.0047,-0.0053,-0.0194,0.0934,-0.0429,0.0518,0.0057,0.0002,-0.0022,0.0943,-0.0022,-0.141,-0.0341,-0.0423,-0.0431,-0.0092,-0.0173,-0.0211,-0.0534,-0.115
"C=CCn1c(=O)c2cnc(Nc3ccc(N4CCN(C)CC4)cc3)nc2n1-c1cccc(C(C)(C)O)n1 [AZD1775] + Nc1ccn([C@@H]2O[C@H](CO)[C@@H](O)C2(F)F)c(=O)n1 [Gemcitabine] (first compound max 1 µM, partner max 0.3 µM)",-0.0044,0.0284,-0.0432,0.045,-0.0001,0.0909,0.0257,0.0795,-0.0253,0.186,0.0035,0.0509,-0.013,0.0584,0.0758,0.0188,0.033,0.042,0.0306,-0.0906
"CN(CCO)CC[C@H](CSc1ccccc1)Nc1ccc(S(=O)(=O)NC(=O)c2ccc(N3CCC([C@@H](O)c4ccccc4-c4ccc(Cl)cc4)CC3)cc2)cc1S(=O)(=O)C(F)(F)F [AZD4320] + CC(=O)O[C@H]1C(=O)[C@@]2(C)[C@H]([C@H](OC(=O)c3ccccc3)[C@]3(O)C[C@H](OC(=O)[C@H](O)[C@@H](NC(=O)c4ccccc4)c4ccccc4)C(C)=C1C3(C)C)[C@]1(OC(C)=O)CO[C@@H]1C[C@@H]2O [Paclitaxel] (first compound max 1 µM, 7x7, partner max 3 µM)",0.0994,0.0929,0.0857,0.047,0.0892,0.104,0.0613,0.168,0.0929,-0.151,0.0761,0.0462,-0.0045,-0.0072,0.192,0.0178,0.111,0.0118,-0.0068,-0.0382
"CN(CCO)CC[C@H](CSc1ccccc1)Nc1ccc(S(=O)(=O)NC(=O)c2ccc(N3CCC([C@@H](O)c4ccccc4-c4ccc(Cl)cc4)CC3)cc2)cc1S(=O)(=O)C(F)(F)F [AZD4320] + CS(=O)(=O)CCNCc1ccc(-c2ccc3ncnc(Nc4ccc(OCc5cccc(F)c5)c(Cl)c4)c3c2)o1 [Lapatinib] (first compound max 1 µM, 7x7, partner max 10 µM)",0.0937,0.0392,0.0125,0.0188,-0.0122,0.0245,0.0029,-0.0248,0.0137,0.117,-0.0411,-0.0204,0.0224,0.0305,0.0099,0.0439,0.051,-0.0004,0.0272,-0.0521
"CN(CCO)CC[C@H](CSc1ccccc1)Nc1ccc(S(=O)(=O)NC(=O)c2ccc(N3CCC([C@@H](O)c4ccccc4-c4ccc(Cl)cc4)CC3)cc2)cc1S(=O)(=O)C(F)(F)F [AZD4320] + Nc1ccn([C@@H]2O[C@H](CO)[C@@H](O)C2(F)F)c(=O)n1 [Gemcitabine] (first compound max 1 µM, 7x7, partner max 0.3 µM)",0.0049,0.0216,-0.0644,0.14,0.0125,-0.0192,-0.0265,-0.0215,0.0151,-0.0368,0.0502,-0.0457,0.0076,0.0061,-0.0229,-0.0049,0.0764,0.0164,0.0014,-0.0907
"Cc1c2c(nn1C)CSCc1cc(n(C)n1)CSc1cc(c3ccccc3c1)OCCCc1c(C(=O)O)n(C)c3c-2c(Cl)ccc13 [AZD5991] + CC(=O)O[C@H]1C(=O)[C@@]2(C)[C@H]([C@H](OC(=O)c3ccccc3)[C@]3(O)C[C@H](OC(=O)[C@H](O)[C@@H](NC(=O)c4ccccc4)c4ccccc4)C(C)=C1C3(C)C)[C@]1(OC(C)=O)CO[C@@H]1C[C@@H]2O [Paclitaxel] (first compound max 1 µM, 7x7, partner max 3 µM)",-0.0368,0.0479,-0.0424,0.0368,0.038,0.0261,-0.0798,0.11,0.0317,-0.104,0.0436,0.0264,-0.0064,-0.0339,-0.0693,0.0062,-0.0508,0.0224,0.0544,-0.033
"Cc1c2c(nn1C)CSCc1cc(n(C)n1)CSc1cc(c3ccccc3c1)OCCCc1c(C(=O)O)n(C)c3c-2c(Cl)ccc13 [AZD5991] + CS(=O)(=O)CCNCc1ccc(-c2ccc3ncnc(Nc4ccc(OCc5cccc(F)c5)c(Cl)c4)c3c2)o1 [Lapatinib] (first compound max 1 µM, 7x7, partner max 10 µM)",-0.0089,-0.012,-0.0102,-0.0984,0.0071,-0.0215,-0.0233,-0.0167,-0.0218,0.0153,0.0041,-0.0197,0.0244,-0.0676,-0.001,0.0972,-0.0004,-0.012,0.0879,0.0651
"Cc1c2c(nn1C)CSCc1cc(n(C)n1)CSc1cc(c3ccccc3c1)OCCCc1c(C(=O)O)n(C)c3c-2c(Cl)ccc13 [AZD5991] + Nc1ccn([C@@H]2O[C@H](CO)[C@@H](O)C2(F)F)c(=O)n1 [Gemcitabine] (first compound max 1 µM, 7x7, partner max 0.3 µM)",-0.0612,0.0117,-0.03,0.0298,-0.0383,-0.0443,0.0127,-0.0102,-0.0201,0.0162,0.122,-0.0006,-0.0191,-0.0164,-0.0402,-0.0071,-0.0282,0,-0.0253,-0.061
"C[C@@H]1COCCN1c1cc(C2([S@](C)(=N)=O)CC2)nc(-c2ccnc3[nH]ccc23)n1 [AZD6738] + C1CC(C1)(C(=O)[O-])C(=O)[O-].N.N.[Pt+2] [Carboplatin] (first compound max 10 µM, 7x7, partner max 10 µM)",-0.0565,0.0222,-0.039,-0.0559,-0.0464,-0.051,-0.0401,-0.0401,-0.0215,-0.0421,-0.11,-0.0562,-0.0397,-0.0161,-0.0213,0.0156,-0.0562,-0.0208,-0.0516,0.0068
"C[C@@H]1COCCN1c1cc(C2([S@](C)(=N)=O)CC2)nc(-c2ccnc3[nH]ccc23)n1 [AZD6738] + Nc1ccn([C@@H]2O[C@H](CO)[C@@H](O)C2(F)F)c(=O)n1 [Gemcitabine] (first compound max 10 µM, 7x7, partner max 0.3 µM)",0.0907,0.0761,-0.0097,0.012,0.0538,0.113,-0.0284,0.067,0.038,0.15,0.0914,0.0622,0.0685,0.0838,0.113,0.0528,0.118,0.0378,-0.0042,-0.0568
"Cc1cc2ncnn2cc1Nc1ncc2c(n1)n(C1CCOCC1)c(=O)n2C [AZD7648] + COc1cc([C@@H]2c3cc4c(cc3[C@@H](O[C@@H]3O[C@@H]5CO[C@@H](C)O[C@H]5[C@H](O)[C@H]3O)[C@H]3COC(=O)[C@H]23)OCO4)cc(OC)c1O [Etoposide] (first compound max 10 µM, 7x7, partner max 10 µM)",-0.0301,0.0716,-0.0021,0.0777,0.0253,0.103,0.12,0.0695,0.0158,0.0563,0.163,0.0154,0.1,0.104,0.105,0.23,0.116,0.0823,0.0734,0.0183
"N#Cc1cnc(Nc2cc(NC[C@H]3CNCCO3)c(C(F)(F)F)cn2)cn1 [SRA737] + CCc1c2c(nc3ccc(O)cc13)-c1cc3c(c(=O)n1C2)COC(=O)[C@]3(O)CC [SN-38] (first compound max 10 µM, 7x7, partner max 0.3 µM)",0.0352,-0.0093,0.0047,0.114,-0.0711,0.0497,0.0065,-0.0447,-0.0181,0.135,-0.0602,-0.141,-0.0477,-0.034,-0.0017,-0.0022,0.0093,-0.0928,-0.0429,–
